Assay results published in ChEMBL document CHEMBL1140494, “Imidazopiperidine amides as dipeptidyl peptidase IV inhibitors for the treatment of diabetes” (Bioorg Med Chem Lett, 2007).

Tests used:
[1] = target: Dipeptidyl peptidase 4 (Homo sapiens, UniProt P27487); experiment: Inhibition of DPP4
[2] = target: Dipeptidyl peptidase 2 (Homo sapiens, UniProt Q9UHL4); experiment: Inhibition of QPP
[3] = target: Dipeptidyl peptidase 9 (Homo sapiens, UniProt Q86TI2); experiment: Inhibition of DPP9
[4] = Plasma clearance in rat at 1 mg/kg, iv and 2 mg/kg, po; assay type: ADME, organism-based
[5] = Volume of distribution at steady state in rat at 1 mg/kg, iv and 2 mg/kg, po; assay type: ADME, organism-based; details: in vivo, read-out: Vdss
[6] = Half life in rat at 1 mg/kg, iv and 2 mg/kg, po; assay type: ADME, organism-based; details: in vivo
[7] = Cmax in rat at 2 mg/kg, po; assay type: ADME, organism-based; parameters: dose 2 mg/kg, route oral; details: in vivo
[8] = Oral bioavailability in rat at 2 mg/kg, po; assay type: ADME, organism-based; details: in vivo
[9] = target: Dipeptidyl peptidase 8 (Homo sapiens, UniProt Q6V1X1); experiment: Inhibition of DPP8
Dipeptidyl peptidase 8, sequence (Q6V1X1 whole entry): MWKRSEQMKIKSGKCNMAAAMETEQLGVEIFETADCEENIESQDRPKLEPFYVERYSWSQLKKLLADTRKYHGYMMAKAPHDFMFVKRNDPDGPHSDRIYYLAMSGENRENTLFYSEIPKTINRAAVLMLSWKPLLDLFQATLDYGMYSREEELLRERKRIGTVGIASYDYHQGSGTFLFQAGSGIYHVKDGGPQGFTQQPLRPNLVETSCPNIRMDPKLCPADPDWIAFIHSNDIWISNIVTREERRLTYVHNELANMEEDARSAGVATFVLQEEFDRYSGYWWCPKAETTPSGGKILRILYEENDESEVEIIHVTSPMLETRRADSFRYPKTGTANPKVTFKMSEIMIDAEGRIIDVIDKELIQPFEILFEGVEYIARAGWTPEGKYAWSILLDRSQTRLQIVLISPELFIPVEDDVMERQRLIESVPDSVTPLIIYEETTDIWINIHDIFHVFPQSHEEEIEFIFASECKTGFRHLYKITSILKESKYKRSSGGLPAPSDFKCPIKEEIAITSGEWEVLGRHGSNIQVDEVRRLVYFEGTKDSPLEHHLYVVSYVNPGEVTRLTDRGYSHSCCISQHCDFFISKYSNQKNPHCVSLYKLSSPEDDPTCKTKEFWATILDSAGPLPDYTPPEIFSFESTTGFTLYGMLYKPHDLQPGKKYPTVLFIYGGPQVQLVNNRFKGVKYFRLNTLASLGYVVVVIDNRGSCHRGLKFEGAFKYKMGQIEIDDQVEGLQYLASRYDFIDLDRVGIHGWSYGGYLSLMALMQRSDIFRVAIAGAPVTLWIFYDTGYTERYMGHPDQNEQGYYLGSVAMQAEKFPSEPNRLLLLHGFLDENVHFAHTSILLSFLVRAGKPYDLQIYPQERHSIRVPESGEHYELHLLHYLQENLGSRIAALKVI

Dipeptidyl peptidase 9, sequence (Q86TI2 whole entry): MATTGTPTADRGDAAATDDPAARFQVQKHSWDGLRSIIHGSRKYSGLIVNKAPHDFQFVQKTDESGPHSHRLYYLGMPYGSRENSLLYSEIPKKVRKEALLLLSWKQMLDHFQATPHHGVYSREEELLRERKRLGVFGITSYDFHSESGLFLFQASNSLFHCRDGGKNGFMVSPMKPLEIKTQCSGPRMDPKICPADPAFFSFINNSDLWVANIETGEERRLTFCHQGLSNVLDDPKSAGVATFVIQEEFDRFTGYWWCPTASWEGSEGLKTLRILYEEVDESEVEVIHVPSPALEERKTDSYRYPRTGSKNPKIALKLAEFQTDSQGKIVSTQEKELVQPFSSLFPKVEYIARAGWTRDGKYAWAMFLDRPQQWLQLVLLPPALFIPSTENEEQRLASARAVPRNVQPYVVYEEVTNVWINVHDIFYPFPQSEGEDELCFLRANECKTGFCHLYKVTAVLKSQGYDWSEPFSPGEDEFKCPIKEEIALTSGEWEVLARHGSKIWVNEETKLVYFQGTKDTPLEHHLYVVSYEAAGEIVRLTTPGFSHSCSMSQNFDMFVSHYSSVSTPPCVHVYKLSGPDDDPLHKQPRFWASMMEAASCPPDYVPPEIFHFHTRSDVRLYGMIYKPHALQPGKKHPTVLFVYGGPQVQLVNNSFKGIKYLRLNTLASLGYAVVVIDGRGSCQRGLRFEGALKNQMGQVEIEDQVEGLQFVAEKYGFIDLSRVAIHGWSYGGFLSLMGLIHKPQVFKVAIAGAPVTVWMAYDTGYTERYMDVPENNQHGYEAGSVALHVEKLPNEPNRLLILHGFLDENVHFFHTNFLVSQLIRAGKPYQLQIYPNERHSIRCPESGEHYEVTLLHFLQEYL
Dipeptidyl peptidase 4, sequence (P27487 whole entry): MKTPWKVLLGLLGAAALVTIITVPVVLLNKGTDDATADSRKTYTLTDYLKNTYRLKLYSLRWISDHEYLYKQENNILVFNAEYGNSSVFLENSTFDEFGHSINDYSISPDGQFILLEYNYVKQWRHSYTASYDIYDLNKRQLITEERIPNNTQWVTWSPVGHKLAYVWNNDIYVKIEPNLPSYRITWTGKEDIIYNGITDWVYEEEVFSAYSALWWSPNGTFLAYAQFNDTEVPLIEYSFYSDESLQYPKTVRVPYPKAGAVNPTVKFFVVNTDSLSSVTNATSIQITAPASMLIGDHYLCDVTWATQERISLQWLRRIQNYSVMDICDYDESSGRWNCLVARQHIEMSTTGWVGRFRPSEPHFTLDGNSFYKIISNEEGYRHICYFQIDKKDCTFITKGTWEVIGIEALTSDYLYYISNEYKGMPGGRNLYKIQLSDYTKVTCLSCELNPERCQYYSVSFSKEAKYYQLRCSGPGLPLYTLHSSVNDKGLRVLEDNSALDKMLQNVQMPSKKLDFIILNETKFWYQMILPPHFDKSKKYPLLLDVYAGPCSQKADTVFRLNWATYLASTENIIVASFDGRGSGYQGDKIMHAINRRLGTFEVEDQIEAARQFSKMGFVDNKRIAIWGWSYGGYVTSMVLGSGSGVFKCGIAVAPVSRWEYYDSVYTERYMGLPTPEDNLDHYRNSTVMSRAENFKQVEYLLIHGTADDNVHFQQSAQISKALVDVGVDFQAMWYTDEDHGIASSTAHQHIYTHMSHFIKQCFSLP

| IC50 [1] | IC50 [2] | IC50 [3] | clearance [4] | Vd [5] | half-life [6] | Cmax [7] | bioavailability [8] | IC50 [9] | SMILES |
| --- | --- | --- | --- | --- | --- | --- | --- | --- | --- |
| 370 nM | 19 µM |  |  |  |  |  |  |  | CC1c2nc(C(C)(C)C)n(C)c2CCN1C(=O)C[C@H](N)Cc1cc(F)c(F)cc1F (stereo in doubt; 70b) |
| 140 nM | > 100 µM |  |  |  |  |  |  |  | N[C@@H](CC(=O)N1CCc2[nH]c(C(F)(F)F)nc2C1)Cc1cc(F)ccc1F |
| 190 nM | > 100 µM | > 100 µM |  |  |  |  |  |  | CC1c2nc(C(F)(F)F)n(C)c2CCN1C(=O)C[C@H](N)Cc1cc(F)ccc1F (stereo in doubt; 63a) |
| 180 nM | > 100 µM | > 100 µM |  |  |  |  |  |  | CCn1c(C(F)(F)F)nc2c1CCN(C(=O)C[C@H](N)Cc1cc(F)ccc1F)C2 |
| 8.4 nM | 20 µM | > 100 µM | 64 mL/min/kg | 6.5 L/kg | 90 min | 72 nM | 16% |  | Cn1c(C(F)(F)F)nc2c1CCN(C(=O)C[C@H](N)Cc1cc(F)c(F)cc1F)C2Cc1ccccc1 (stereo in doubt; 71b) |
| 5.8 nM | 15 µM | > 100 µM |  |  |  |  |  |  | Cn1c(C(F)(F)F)nc2c1CCN(C(=O)C[C@H](N)Cc1cc(F)c(F)cc1F)C2Cc1ccc(F)cc1 (stereo in doubt; 72b) |
| 780 nM | 39 µM | > 100 µM |  |  |  |  |  |  | Cn1c(C(F)(F)F)nc2c1CCN(C(=O)C[C@H](N)Cc1cc(F)c(F)cc1F)C2Cc1ccc(F)cc1 (stereo in doubt; 72a) |
| 570 nM | 46 µM | > 100 µM |  |  |  |  |  |  | Cn1c(C(F)(F)F)nc2c1CCN(C(=O)C[C@H](N)Cc1cc(F)c(F)cc1F)C2Cc1ccccc1 (stereo in doubt; 71a) |
| 50 nM | 38 µM | > 100 µM | 93 mL/min/kg | 8.3 L/kg | 84 min | 50 nM | 16% |  | Cn1cnc2c1CCN(C(=O)C[C@H](N)Cc1cc(F)c(F)cc1F)C2C(F)(F)F (stereo in doubt; 67b) |
| 65 nM | > 100 µM | > 100 µM |  |  |  |  |  |  | CC1c2nc(C(F)(F)F)n(C)c2CCN1C(=O)C[C@H](N)Cc1cc(F)ccc1F (stereo in doubt; 63b) |
| 250 nM | 64 µM | > 100 µM |  |  |  |  |  |  | N[C@@H](CC(=O)N1CCc2c(nc(C(F)(F)F)n2Cc2ccc(F)cc2)C1)Cc1cc(F)ccc1F |
| 110 nM | 37 µM | > 100 µM |  |  |  |  |  |  | Cn1c(C(F)(F)F)nc2c1CCN(C(=O)C[C@H](N)Cc1cc(F)c(F)cc1F)C2C1CC1 (stereo in doubt; 68b) |
|  | 39 µM | > 100 µM | 81 mL/min/kg | 8 L/kg | 72 min | 98 nM | 40% |  | CC1c2nc(C(F)(F)F)n(C)c2CCN1C(=O)C[C@H](N)Cc1cc(F)c(F)cc1F (stereo not given in full) |
|  | 90 µM |  |  |  |  |  |  |  | CC1c2nc(C3CC3)n(C)c2CCN1C(=O)C[C@H](N)Cc1cc(F)c(F)cc1F (stereo not given in full) [listing 1 of 2 here] |
| 150 nM | 92 µM | > 100 µM |  |  |  |  |  |  | Cn1c(C(F)(F)F)nc2c1CCN(C(=O)C[C@H](N)Cc1cc(F)ccc1F)C2 |
| 260 nM | 85 µM | > 100 µM |  |  |  |  |  | > 100 µM | CC(C)Cn1c(C(F)(F)F)nc2c1CN(C(=O)C[C@H](N)Cc1cc(F)ccc1F)CC2 |
| 220 nM | 49 µM | > 100 µM |  |  |  |  |  |  | CC(C)Cn1c(C(F)(F)F)nc2c1CCN(C(=O)C[C@H](N)Cc1cc(F)ccc1F)C2 |
| 630 nM | 37 µM |  |  |  |  |  |  |  | CC1c2nc(C(C)(C)C)n(C)c2CCN1C(=O)C[C@H](N)Cc1cc(F)c(F)cc1F (stereo in doubt; 70a) |
|  | 30 µM |  |  |  |  |  |  |  | CC1c2nc(C3CC3)n(C)c2CCN1C(=O)C[C@H](N)Cc1cc(F)c(F)cc1F (stereo not given in full) [listing 2 of 2 here] |
| 250 nM | 56 µM | > 100 µM |  |  |  |  |  | > 100 µM | N[C@@H](CC(=O)N1CCc2nc(C(F)(F)F)n(Cc3ccc(F)cc3)c2C1)Cc1cc(F)ccc1F |
| 380 nM | 76 µM | > 100 µM |  |  |  |  |  |  | Cn1cnc2c1CCN(C(=O)C[C@H](N)Cc1cc(F)c(F)cc1F)C2C(F)(F)F (stereo in doubt; 67a) |
| 340 nM | > 100 µM | > 100 µM |  |  |  |  |  |  | Cn1c(C(F)(F)F)nc2c1CCN(C(=O)C[C@H](N)Cc1cc(F)c(F)cc1F)C2C1CC1 (stereo in doubt; 68a) |
